# According to publication PMC8344253, “Identifying requirements for RSK2 specific inhibitors” (Journal of Enzyme Inhibition and Medicinal Chemistry, 2021):
# pIC50: −log10 of the molar value.
# What was measured:
# RSK4 = RSK4 (Homo sapiens, UniProt Q9UK32); test: FRET kinase binding assay, GST-tagged RSK4
# Procedure: (§3) For RSK1 and RSK2 NTKD, 2 nM Eu Streptavidin and 2 nM Biotin anti-His antibody (Invitrogen) and for RSK3/4, 2 nM Eu anti-GST antibody (Invitrogen) were used in place of the Eu anti-His antibody. […] The corresponding average EMR of wells without inhibitor or kinase was subtracted, and background-subtracted EMR was normalised to average vehicle control. Normalised EMR was calculated in MATLAB (Mathworks).
# (§4) Hill slope and IC50 were unconstrained. […] Curve fitting and statistics were calculated in Prism 9.0.2 (Graphpad). Statistical significance is considered using α = 0.01.
# (§5) This assay uses an ATP-mimetic tracer labelled with an acceptor fluorophore and a recombinant His-tagged kinase, which is indirectly labelled with a europium donor chelated to an anti-His antibody. Interaction of the tracer with the kinase generates a FRET signal. […] GST-tagged RSK3 and RSK4 were purchased and tested with a labelled anti-GST antibody in the FRET assay.
# RSK2 [1] = molecular target: T1, RSK2 (Homo sapiens, UniProt P51812); test: ELISA kinase activity assay, RSK2; assay type: biochemical; conditions: for % Uninhibited kinase at 30 μM: 30 μM inhibitor; for pIC50: 10 μM ATP, 30 min reaction
# T1 sequence (P51812 whole entry, the tested form may be a part): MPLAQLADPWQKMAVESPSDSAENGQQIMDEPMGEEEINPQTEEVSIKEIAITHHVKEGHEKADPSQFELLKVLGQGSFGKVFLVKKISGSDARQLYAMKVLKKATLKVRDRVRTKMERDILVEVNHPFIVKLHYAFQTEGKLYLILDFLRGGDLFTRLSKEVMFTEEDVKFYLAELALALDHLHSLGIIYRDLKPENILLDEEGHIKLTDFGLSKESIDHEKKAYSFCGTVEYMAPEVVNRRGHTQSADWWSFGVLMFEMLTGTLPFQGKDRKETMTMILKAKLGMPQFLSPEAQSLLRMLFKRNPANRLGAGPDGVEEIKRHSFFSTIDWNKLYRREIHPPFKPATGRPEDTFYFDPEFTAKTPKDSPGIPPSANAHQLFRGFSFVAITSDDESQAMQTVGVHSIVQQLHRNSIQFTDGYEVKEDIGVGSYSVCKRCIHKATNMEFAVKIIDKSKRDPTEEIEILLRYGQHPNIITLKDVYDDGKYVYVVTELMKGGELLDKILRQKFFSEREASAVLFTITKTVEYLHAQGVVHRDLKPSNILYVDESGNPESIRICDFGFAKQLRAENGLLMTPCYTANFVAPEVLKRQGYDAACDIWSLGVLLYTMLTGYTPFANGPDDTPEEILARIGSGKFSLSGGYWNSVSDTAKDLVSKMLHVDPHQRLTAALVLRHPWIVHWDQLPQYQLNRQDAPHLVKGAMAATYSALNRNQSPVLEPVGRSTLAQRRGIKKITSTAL
# Procedure: The activity of RSK2 was measured as previously reported. Briefly, 1 nM kinase, inhibitor or vehicle (1% DMSO), and 10 μM ATP in kinase buffer were dispensed into the wells of a 96-well plate with adsorbed glutathione S-transferase fusion protein containing the sequence […]. The reaction was stopped after 30 min, during the linear phase, with the addition of equal volume 500 mM EDTA, then phosphorylated peptide was measured by ELISA. Luminescence from wells with EDTA added before ATP was subtracted, then luminescence was normalised to the average vehicle luminescence. […] After 2 h incubation, the kinase/inhibitor mix was diluted 100-fold in kinase buffer. […] The reaction was stopped at the time indicated in the figures with the addition of EDTA, and amount of phosphorylated peptide was measured by ELISA.
# (§1) Hill slope and IC50 were unconstrained. […] Statistical significance is considered using α = 0.01.
# RSK1 [2] = molecular target: T2, RSK1 (Homo sapiens, UniProt Q15418); test: FRET kinase binding assay, RSK1; conditions: for % Uninhibited kinase at 30 μM: 30 μM inhibitor
# T2 sequence (Q15418 whole entry): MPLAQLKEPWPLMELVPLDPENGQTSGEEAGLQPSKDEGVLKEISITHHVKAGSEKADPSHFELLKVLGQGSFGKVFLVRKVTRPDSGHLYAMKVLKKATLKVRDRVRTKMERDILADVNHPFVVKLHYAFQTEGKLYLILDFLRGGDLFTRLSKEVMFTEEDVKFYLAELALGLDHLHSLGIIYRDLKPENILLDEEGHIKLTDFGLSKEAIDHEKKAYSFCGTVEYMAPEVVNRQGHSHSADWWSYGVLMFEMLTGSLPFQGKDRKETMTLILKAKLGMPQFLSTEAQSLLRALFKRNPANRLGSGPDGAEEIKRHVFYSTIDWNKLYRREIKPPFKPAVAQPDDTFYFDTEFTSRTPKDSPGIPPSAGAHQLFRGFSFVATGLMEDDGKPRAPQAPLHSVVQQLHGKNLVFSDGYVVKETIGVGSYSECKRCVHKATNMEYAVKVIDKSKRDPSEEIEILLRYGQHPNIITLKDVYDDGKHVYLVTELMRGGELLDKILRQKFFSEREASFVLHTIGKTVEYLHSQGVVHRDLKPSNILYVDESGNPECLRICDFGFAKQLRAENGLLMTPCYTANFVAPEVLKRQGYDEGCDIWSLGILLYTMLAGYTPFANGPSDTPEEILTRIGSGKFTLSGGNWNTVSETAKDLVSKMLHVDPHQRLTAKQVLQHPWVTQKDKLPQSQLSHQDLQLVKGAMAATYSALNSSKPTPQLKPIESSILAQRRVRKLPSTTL
# Procedure: (§2) Normalised EMR was calculated in MATLAB (Mathworks).
# as §1
# The results from the pre-incubation experiments provide an indirect measure of the inhibitor off rate whereas the simultaneous addition of inhibitor and tracer provide an indirect measure of the inhibitor on rate. […] The mechanism that accounts for the unique properties of RSK2 interacting with 1c are unknown.
# RSK2 NTKD = molecular target: T3, RSK2 NTKD (Homo sapiens, UniProt P51812); test: FRET kinase binding assay, isolated RSK2 NTKD; conditions: for % Uninhibited kinase at 30 μM: 30 μM inhibitor
# T3 construct: domain, containing residues 1–389; made in house
# T3 sequence (P51812 1-389): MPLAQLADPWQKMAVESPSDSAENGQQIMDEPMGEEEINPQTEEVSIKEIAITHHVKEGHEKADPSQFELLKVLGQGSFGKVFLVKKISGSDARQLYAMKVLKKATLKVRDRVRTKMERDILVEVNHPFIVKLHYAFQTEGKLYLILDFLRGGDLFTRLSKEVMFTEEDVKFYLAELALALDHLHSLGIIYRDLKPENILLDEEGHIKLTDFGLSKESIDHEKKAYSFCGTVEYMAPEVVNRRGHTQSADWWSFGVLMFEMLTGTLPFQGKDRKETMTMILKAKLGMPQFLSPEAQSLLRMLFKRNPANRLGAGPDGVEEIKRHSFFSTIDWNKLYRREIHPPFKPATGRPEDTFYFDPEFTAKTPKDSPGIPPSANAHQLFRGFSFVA
# Procedure: as §2
# Recombinant baculoviruses were generated by the Gateway cloning using the BaculoDirect Baculovirus Expression System (Invitrogen) according to the manufacturer's manual.The cDNA for RSK2 NTKD was amplified by conventional PCR, then cloned into pENTR-D-TOPO (pENTR Directional TOPO Cloning Kits, Invitrogen). The resulting Gateway Entry vectors were used for making the baculoviruses in the same way as RSK1 and RSK2 WT viruses. These constructs have 6xHis sequence in their C-termini and recombinant proteins were purified by Ni-NTA Agarose (Qiagen).
# as §1
# RSK2 [3] = molecular target: T1, RSK2; test: ELISA dilution reaction (100-fold dilution after 2 h pre-incubation), RSK2; assay type: biochemical
# Procedure: The activity of RSK2 was measured as previously reported. Briefly, 1 nM kinase, inhibitor or vehicle (1% DMSO), and 10 μM ATP in kinase buffer were dispensed into the wells of a 96-well plate with adsorbed glutathione S-transferase fusion protein containing the sequence […]. The reaction was stopped after 30 min, during the linear phase, with the addition of equal volume 500 mM EDTA, then phosphorylated peptide was measured by ELISA. Luminescence from wells with EDTA added before ATP was subtracted, then luminescence was normalised to the average vehicle luminescence. […] After 2 h incubation, the kinase/inhibitor mix was diluted 100-fold in kinase buffer. […] After the dilution, kinase/inhibitor solution and 3.3 μM ATP in kinase buffer were mixed to initiate the reaction. The reaction was stopped at the time indicated in the figures with the addition of EDTA, and amount of phosphorylated peptide was measured by ELISA.
# To further analyse the stability of RSK2 with 1c the ELISA assay was used as an orthogonal approach. […] Inhibition of kinase activity was measured at differing time points and compared to that obtained with a concentration of inhibitor equal to the concentration after dilution. […]
# Figure 6. […] After dilution, ATP was added and the reaction proceeded for the times indicated, then the reaction was stopped with EDTA and the amount of phosphorylated substrate was measured by ELISA. […]
# RSK3 = RSK3 (Homo sapiens, UniProt Q15349); test: FRET kinase binding assay, GST-tagged RSK3
# Chain of RSK3 (Q15349 whole entry, species assumed): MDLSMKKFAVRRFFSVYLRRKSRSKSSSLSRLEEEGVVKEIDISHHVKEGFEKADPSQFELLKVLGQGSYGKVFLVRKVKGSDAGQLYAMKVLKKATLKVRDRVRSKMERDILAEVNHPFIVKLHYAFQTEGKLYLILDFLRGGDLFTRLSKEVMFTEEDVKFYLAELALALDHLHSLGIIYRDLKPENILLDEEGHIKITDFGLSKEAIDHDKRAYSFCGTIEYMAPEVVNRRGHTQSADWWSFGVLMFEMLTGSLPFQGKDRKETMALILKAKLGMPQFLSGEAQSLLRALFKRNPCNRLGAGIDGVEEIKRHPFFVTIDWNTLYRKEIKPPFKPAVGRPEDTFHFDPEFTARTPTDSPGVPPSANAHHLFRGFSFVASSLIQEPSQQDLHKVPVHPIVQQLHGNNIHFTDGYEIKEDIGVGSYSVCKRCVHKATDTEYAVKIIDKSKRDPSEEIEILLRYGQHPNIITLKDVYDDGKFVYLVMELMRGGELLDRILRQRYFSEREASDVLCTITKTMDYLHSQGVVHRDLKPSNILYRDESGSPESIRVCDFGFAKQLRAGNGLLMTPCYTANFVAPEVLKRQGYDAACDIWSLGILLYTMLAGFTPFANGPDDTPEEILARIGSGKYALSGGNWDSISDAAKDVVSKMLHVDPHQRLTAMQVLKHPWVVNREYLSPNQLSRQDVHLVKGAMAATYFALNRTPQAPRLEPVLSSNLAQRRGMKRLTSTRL
# Procedure: as §3, §4, §5
# RSK1 [4] = molecular target: T2, RSK1; test: ELISA kinase activity assay, RSK1; assay type: biochemical; conditions: RSK1, 2 h pre-incubation
# RSK2 [5] = molecular target: T1, RSK2; test: FRET kinase binding assay (LanthaScreen Eu Kinase Binding Assay), full-length RSK2; conditions: for % Uninhibited kinase at 30 μM: 30 μM inhibitor; for pIC50: 15 nM tracer; for Relative Off-Rate: slope of change in IC50 over time after 2 h pre-incubation, log-log fit
# Procedure: as §2, §1
# RSK1 [6] = molecular target: T2, RSK1; test: ELISA dilution reaction (100-fold dilution after 2 h pre-incubation), RSK1; assay type: biochemical; conditions: 4 h after 100-fold dilution
# 247 kinases = tested on: 247 kinases; parameters: method as in PMID 27528706; conditions: representatives from all kinase families; cited from earlier work
# RSK1/2 = conditions: cell-based assay; cited from earlier work
# [7] = FRET, RSK2, 2 h kinase-inhibitor incubation before tracer
# [8] = FRET, RSK2, 5 min kinase-inhibitor incubation
# Chain of RSK4 (Q9UK32 whole entry, species assumed): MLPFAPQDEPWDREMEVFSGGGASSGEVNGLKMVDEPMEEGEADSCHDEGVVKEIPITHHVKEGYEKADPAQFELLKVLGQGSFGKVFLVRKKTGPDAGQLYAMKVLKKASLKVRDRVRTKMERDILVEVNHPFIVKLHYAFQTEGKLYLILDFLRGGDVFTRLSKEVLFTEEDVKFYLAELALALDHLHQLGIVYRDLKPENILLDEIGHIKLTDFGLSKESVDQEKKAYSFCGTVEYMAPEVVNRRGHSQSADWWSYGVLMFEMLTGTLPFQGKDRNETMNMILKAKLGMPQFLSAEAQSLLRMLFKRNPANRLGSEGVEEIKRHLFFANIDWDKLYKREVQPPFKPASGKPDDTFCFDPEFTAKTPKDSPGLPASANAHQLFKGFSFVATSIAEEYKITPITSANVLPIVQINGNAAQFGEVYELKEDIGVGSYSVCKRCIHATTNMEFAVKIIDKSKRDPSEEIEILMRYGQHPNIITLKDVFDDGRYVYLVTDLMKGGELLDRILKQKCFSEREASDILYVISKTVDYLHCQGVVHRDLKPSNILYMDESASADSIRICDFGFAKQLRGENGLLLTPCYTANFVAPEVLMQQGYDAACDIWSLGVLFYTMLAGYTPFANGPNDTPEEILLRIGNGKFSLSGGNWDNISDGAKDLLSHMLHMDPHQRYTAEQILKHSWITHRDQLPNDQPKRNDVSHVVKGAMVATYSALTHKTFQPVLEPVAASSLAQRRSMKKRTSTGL
SMILES,"% Uninhibited kinase at 30 μM (RSK2 [1]; RSK2, 2 h pre-incubation) [%]","pIC50 (RSK1 [2]; FRET, RSK1, 2 h incubation)","% Uninhibited kinase at 30 μM (RSK1 [2]; FRET, RSK1, 2 h incubation) [%]",% Uninhibited kinase at 30 μM (RSK2 NTKD; 2 h incubation) [%],"% Uninhibited kinase at 30 μM (RSK2 [5]; FRET, RSK2, 5 min incubation) [%]","% Uninhibited kinase at 30 μM (RSK2 [5]; FRET, RSK2, 2 h incubation) [%]",pIC50 (RSK2 [5]; [7]),Relative Off-Rate (RSK2 [5]; RSK2),"pIC50 (RSK2 [1]; RSK2, 2 h pre-incubation)",pIC50 (RSK2 [5]; [8]),further results
"CC(=O)OC1C(C)OC(Oc2c(-c3ccc(O)cc3)oc3cc(O)cc(O)c3c2=O)C(O)C1OC(C)=O (stereo not drawn) [SL0101, reference compound]",13.9,6.71,16.7,11.5,45.7,4.3,–,–,–,–,"Inhibition of RSK4 (RSK4; 2 h incubation): did not inhibit; % Uninhibited kinase at 30 μM (RSK4; RSK4, 2 h incubation, 30 μM inhibitor): 70.9%; Increase in IC50 with 5 min vs 2 h pre-incubation (RSK2 [1]; RSK2): two-fold; % Uninhibited kinase at 30 μM (RSK2 [1]; RSK2, 5 min pre-incubation): 31.6%; pIC50 (RSK1 [2]; FRET, RSK1, 5 min incubation): 6.11; Inhibition after 5 min incubation (RSK1 [2]; FRET, RSK1, 5 min incubation): 80%; % Uninhibited kinase at 30 μM (RSK1 [2]; FRET, RSK1, 5 min incubation): 19.2%; Increase in IC50 with 5 min vs 2 h incubation (RSK2 NTKD): two-fold; Inhibition after 5 min incubation (RSK2 NTKD; 5 min incubation): ~80%; % Uninhibited kinase at 30 μM (RSK2 NTKD; 5 min incubation): 20.1%; Inhibition of RSK2 after the dilution (RSK2 [3]; 4 h after 100-fold dilution, 100 nM RSK2 pre-incubated 2 h with 5 μM SL0101): unable to inhibit; Inhibition of RSK3 (RSK3; 2 h incubation): did not inhibit; % Uninhibited kinase at 30 μM (RSK3; RSK3, 2 h incubation, 30 μM inhibitor): 90.3%; pIC50 (RSK1 [4]): 7.15; % Uninhibited kinase at 30 μM (RSK1 [4]; 30 μM inhibitor): 3.9%; Inhibition after 5 min incubation (RSK2 [5]; FRET, RSK2, 5 min incubation): ~50%"
CCCNC(=O)OC1C(CCC)CC(Oc2c(-c3ccc(O)cc3)oc3cc(O)cc(O)c3c2=O)C(O)C1OC(=O)NCCC (stereo not drawn) [Inhibitor 1f],–,–,–,–,–,1.3,7.04,0.630 log10(nM/min),–,–,–
"CCCNC(=O)O[C@@H]1[C@@H](OC(=O)NCCC)[C@@H](O)[C@H](Oc2c(-c3ccc(O)cc3)oc3cc(O)cc(O)c3c2=O)O[C@H]1CCC [Inhibitor 1e, (2 s,3S,4S,5R,6S)-6-((5,7-dihydroxy-2–(4-hydroxyphenyl)-4-oxo-4H-chromen-3-yl)oxy)-5-hydroxy-2-propyltetrahydro-2H-pyran-3,4-diyl bis(n-propylcarbamate)]",–,–,–,–,–,0.8,7.08,0.417 log10(nM/min),–,–,melting point: 158 to 160 °C
"CCCC1CC(Oc2c(-c3ccc(O)cc3)oc3cc(O)cc(O)c3c2=O)C(O)C(OC(C)=O)C1OC(C)=O (stereo not drawn) [Inhibitor 1b, C5”-n-propyl cyclitol SL0101]",15.7,–,–,–,49.7,1.3,6.67,0.601 log10(nM/min),6.74,4.62,Specificity in screen of 247 kinases (247 kinases): primarily targeted RSK1/2; Inhibition of proliferation when RSK1/2 silenced (RSK1/2): ineffective

# Continued, in another order:
"% Uninhibited kinase at 30 μM (RSK2 [1]; RSK2, 2 h pre-incubation) [%]","pIC50 (RSK1 [2]; FRET, RSK1, 2 h incubation)","% Uninhibited kinase at 30 μM (RSK1 [2]; FRET, RSK1, 2 h incubation) [%]",% Uninhibited kinase at 30 μM (RSK2 NTKD; 2 h incubation) [%],"% Uninhibited kinase at 30 μM (RSK2 [5]; FRET, RSK2, 5 min incubation) [%]","% Uninhibited kinase at 30 μM (RSK2 [5]; FRET, RSK2, 2 h incubation) [%]",pIC50 (RSK2 [5]; [7]),Relative Off-Rate (RSK2 [5]; RSK2),"pIC50 (RSK2 [1]; RSK2, 2 h pre-incubation)",pIC50 (RSK2 [5]; [8]),SMILES,further results
9.4,7.89,6.1,11.1,26.2,0.3,7.43,0.126 log10(nM/min),7.07,5.19,"CCCNC(=O)O[C@@H]1[C@@H](OC(C)=O)[C@@H](O)[C@H](Oc2c(-c3ccc(O)cc3)oc3cc(O)cc(O)c3c2=O)O[C@H]1CCC [Inhibitor 1c, (2 s,3R,4S,5S,6S)-2-((5,7-dihydroxy-2–(4-hydroxyphenyl)-4-oxo-4H-chromen-3-yl)oxy)-3-hydroxy-6-propyl-5-((propylcarbamoyl)oxy)tetrahydro-2H-pyran-4-yl acetate]","Relative on-rate (RSK1 [2]; RSK1, change in IC50 over time, tracer added simultaneously with inhibitor): −0.719 log10(nM/min); Off: On Ratio (RSK1 [2]; RSK1, ratio of absolute value of relative off-rate to on-rate): 0.25; Relative Off-Rate (RSK1 [2]; RSK1, slope of change in IC50 over time after 2 h pre-incubation, log-log fit): 0.176 log10(nM/min); pIC50 (RSK2 NTKD; 2 h incubation): 7.92; inhibition at 1.5 µM (RSK2 [3]; over a 12 h time course after 100-fold dilution, 100 nM RSK2 pre-incubated 2 h with 1.5 μM 1c): ~50%; Inhibition of RSK1 after the dilution (RSK1 [6]): not inhibited; Inhibition at 8-fold higher concentration than the IC50 (RSK2 [5]; FRET, RSK2, 5 min pre-incubation): 75%; Off rate lower than that of 1d, 1e, and 1f (RSK2 [5]; RSK2, relative off-rate comparison): more than three-fold; Relative on-rate (RSK2 [5]; RSK2, change in IC50 over time, tracer added simultaneously with inhibitor): −1.204 log10(nM/min); Off: On Ratio (RSK2 [5]; RSK2, ratio of absolute value of relative off-rate to on-rate): 0.10"
11.1,–,–,–,–,0.5,7.58,0.548 log10(nM/min),7.13,–,CCCNC(=O)OC1C(CCC)CC(Oc2c(-c3ccc(O)cc3)oc3cc(O)cc(O)c3c2=O)C(O)C1OC(C)=O (stereo not drawn) [Inhibitor 1d],–
